Test results reported in patent US9187518B2, “Antiangiogenic brassinosteroid compounds” (CONSEJO NACIONAL DE INVESTIGACIONES CIENTIFICAS Y TECNICAS …, priority 2011, dated 2015).

Experiments:
[1] = test system: IL-6; assay: IL-6 secretion in LPS-stimulated J774A.1 macrophages (ELISA); assay type: cell-based, murine; settings: J774A.1 stimulated with 100 ng/ml LPS 8 h, 40 μM
Experimental: J774A.1 cells grown in 24-well plates were incubated at 37° C. with 100 ng/ml of LPS, in duplicate. After 8 h, supernatants were harvested and murine IL-6 was quantified by commercial ELISA sets (BD OptEIA™, Becton Dickinson, USA) according to manufacturer instructions.

[2] = test system: HCLE cells infected with HSV-1; assay: Microarray gene expression in HCLE cells infected with HSV-1; assay type: cell-based, human; settings: HCLE infected with HSV-1 (m.o.i.=1), 40 μM, 6 h, vs infected untreated
Experimental: (§1) HSV-1 infected cells and LPS stimulated cells were transcriptionally analyzed by using the whole human genome microarray and whole mouse genome microarray (Agilent Technologies, Santa Clara, Calif.), corresponding to 41,000 human or mice genes and transcripts.
(§2) RNA was extracted with chloroform/isopropanol and purified from Trizol.
(§3) cDNA synthesis, amplification and labeling of cRNA was performed, following the protocol of two colors of Agilent. Cyanine: 3-CTP and 5-CTP labeled cRNA was prepared from purified RNA (Two-Color Microarray-Based Gene Expression Analysis—Quick Amp Labeling, Agilent). Labeled cRNA was purified, quantified and the efficiency of labeling determined.
After that, we proceeded with the hybridization, washing, assembling of the chips and scanning. […] The fluorescence intensity data obtained for each chip were analyzed using GeneSpring XG11 and Multi Experiment Viewer (MeV) programs. […]
We used the commercial software Agilent Feature Extraction for quality control of the scan. The software converts the scanned images produced in quantitative data for further analysis. […] On the one hand, it performs an analysis of the image to locate the grid on the chip and in it, the spots for each gene, and on the other hand, it makes an analysis of data, to define and measure information (fluorescence intensity) of each spot, for the analysis of gene expression. […]

[3] = test system: IL-6; assay: IL-6 secretion in epithelial cells (ELISA); assay type: cell-based, human
[4] = test system: TNF-α; assay: TNF-α secretion in epithelial cells (ELISA); assay type: cell-based, human
[5] = test system: LMM3 cells; assay: In vivo neovascular response induced by LMM3 cells in BALB/c mice; settings: intradermal, 5 days
Experimental: For the in vivo assay, 2×10^6 cells/mL were grown in 1 mL of complete medium in 6 wells plates. Compound 1 was incubated with LMM3 cells during 1 h and 6 hs. Also, a group of non-treated tumoral cells were grown and incubated. Then, all the cells from each group were washed with PBS, trypsinized and re-suspended in 0.9 ml of F12 medium without FBS.
Female BALB/c mice were randomized as follows:
• Sham N=4 • LMM3 N=4 • LMM3+Compound 1-1 hour treatment N=4 • LMM3+Compound 1-6 hours treatment N=4
Then, inoculation of 2×10^5 cells/0.1 mL was done intradermically in the mouse flanks. After 5 days the animals were sacrificed and photographs of the inoculation site were taken.
The vessels density was quantified in each animal and the results were analized by ANOVA followed by the Tukey test. Results were expressed as the median of vessels density (vessels/mm^2+/−ES).

[6] = test system: J774A.1 cells stimulated with LPS; assay: Microarray gene expression in J774A.1 cells stimulated with LPS; assay type: cell-based, mouse; settings: J774A.1, 100 ng/ml LPS, 40 μM, 6 h
Experimental: as §1, §2, §3
After that, we proceeded with the hybridization, washing, assembling of the chips and scanning. The scanner software (Feature extraction) performed the scan quality control. The fluorescence intensity data obtained for each chip were analyzed using GeneSpring XG11 and Multi Experiment Viewer (MeV) programs.
Labeled samples were placed in human and mouse hybridizing chips for HCLE and J774A.1 cells, respectively, during 17 h at 60° C. Successive washings were done with different washing, stabilization and drying solutions, and samples were scanned in the Agilent scanner G2565BA.
We used the commercial software Agilent Feature Extraction for quality control of the scan. The software converts the scanned images produced in quantitative data for further analysis. It calculates the errors associated with hybridization, washing and scanning and detects outliers. On the one hand, it performs an analysis of the image to locate the grid on the chip and in it, the spots for each gene, and on the other hand, it makes an analysis of data, to define and measure information (fluorescence intensity) of each spot, for the analysis of gene expression.
We identified differentially expressed genes with statistical significance. We used two programs, the XG11 and GeneSpring and the Multi Experiment Viewer (MeV).
For this purpose, epithelial infected and inflammatory cells were processed to obtain RNA samples. HCLE cells infected with HSV-1 (m.o.i.=1) and J774A.1 cells stimulated with LPS (100 ng/ml) were treated or not with 40 μM of Compound 1. To extract total RNA, cells were harvested with Trizol at 6 h p.i. and at 6 h post-LPS induction. Eight replicates were obtained from HSV-1 infected and LPS-stimulated cells (four ‘control’ each) and other eight, from infected and LPS-stimulated cells treated with Compound 1 (four ‘treated’ each).

[7] = test system: HSV-1; assay: Anti-HSV-1 activity (multiplication and viral spreading) in human conjunctival and corneal cells; assay type: cell-based, Herpes simplex virus type 1
[8] = uninfected treated cells, compound alone

SMILES: CC[C@@H](C(C)C)[C@H](O)[C@@H](O)[C@@H](C)[C@H]1CC[C@H]2[C@@H]3CCC4=CC(=O)CC[C@]4(C)[C@H]3CC[C@]12C [Compound 1, (22S,23S)-22,23-dihydroxystigmast-4-en-3-one]
- IL-6 level [1]: 838 ± 4.2 pg/mL
- expression of IL-1α, IL-8 and CXCL-2 [2]: overexpression
- expression of macrophage colony stimulating factor (CSF-2) [2]: overexpression
- IL-6 release ([3]; HSV-1 infected HCLE cells, 40 μM, 24 h, vs infected control): did not elicit any change
- IL-6 release ([3]; HSV-1 infected IOBA-NHC cells, 40 μM, 24 h, vs infected control): did not elicit any change
- IL-6 release [3, 8]: did not induce IL-6 release by itself
- TNF-α production ([4]; HSV-1 infected IOBA-NHC cells, 40 μM, 24 h): did not affect TNF-α production
- TNF-α release [4, 8]: did not induce TNF-α release by itself
- angiogenic response induced by LMM3 cells (vessel density) ([5]; LMM3 cells pre-incubated with 0.025 μg/μl during 1 h): significantly reduced
- angiogenic response induced by LMM3 cells (vessel density) ([5]; LMM3 cells pre-incubated with 0.025 μg/μl during 6 h): significantly reduced
- Dusp2 gene expression [6]: restrained
- expression of ATF3 and TLR4 [6]: overexpressed
- expression of IL-10 and Socs2 ([6]; vs untreated control): increased
- expression of genes for IL-12, IL-23 and CXCL10 ([6]; vs untreated stimulated): overexpression
- HSV-1 multiplication and viral spreading ([7]; human conjunctival cells): prevents
- selectivity indices (SI) ([7]; human conjunctival cells): 13.2
- HSV-1 multiplication and viral spreading ([7]; human corneal cells): prevents
- selectivity indices (SI) ([7]; human corneal cells): 9.3
